In article PMC6112376, “Comprehensive Analyses and Prioritization of Tox21 10K Chemicals Affecting Mitochondrial Function by in-Depth Mechanistic Studies” (Environmental Health Perspectives, 2018):
Read-outs that look alike come from different tables or passages of the source.

How the values were obtained:
rat primary hepatocytes [1] = assay: MMP assay in rat primary hepatocytes; details: Rattus norvegicus, Hepatocyte
HepG2 cells [2] = assay: ROS-Glo hydrogen peroxide (ROS) assay; format: cell-based, human; details: Homo sapiens, HepG2, 2 h, read-out: ROS (HepG2) EC50
[3] = test system: HeLa cells expressing YFP-Parkin; assay: Parkin translocation assay; format: cell-based, human
[4] = test system: mitochondrial respiratory chain complex V; format: biochemical, rat
rat primary hepatocytes [5] = test system: rat primary hepatocytes
HepG2 cells [6] = details: cited from earlier work
[7] = test system: Caenorhabditis elegans (Bristol N2); details: Bristol N2 (wild type), Caenorhabditis elegans, in vivo
[8] = test system: mitochondrial respiratory chain complex I; format: biochemical, rat
[9] = test system: Caenorhabditis elegans (Bristol N2); assay: C. elegans larval development and growth assay
[10] = test system: mitochondrial respiratory chain complex IV; format: biochemical, rat
[11] = test system: mitochondrial respiratory chain complex III; format: biochemical, rat
HepG2 cells [12] = assay: Intracellular ATP content (cell viability) assay; format: cell-based, human; details: Homo sapiens, HepG2, 40 h
[13] = test system: isolated rat liver mitochondria; assay: Oxygen consumption, Clark-type oxygen electrode; format: biochemical
hNSC = assay: MMP assay in human neural stem cells (hNSC); format: cell-based; details: Homo sapiens, Neural stem cell, 1 h, read-out: hNSC IC50 (MMP)
[14] = target: T1, mitochondrial respiratory chain complex II (Rattus norvegicus, UniProt P21913+Q641Z9+Q6PCT8+Q920L2); assay: Respiratory chain complex II activity; format: biochemical; details: tested up to 100μM
T1 construct: Submitochondrial particles were prepared by subjecting the intact rat mitochondria, isolated as described above, to three successive freeze–thaw cycles; from tissue; host or cells: rat liver mitochondria (submitochondrial particles)
T1 sequence (Q920L2 35-656): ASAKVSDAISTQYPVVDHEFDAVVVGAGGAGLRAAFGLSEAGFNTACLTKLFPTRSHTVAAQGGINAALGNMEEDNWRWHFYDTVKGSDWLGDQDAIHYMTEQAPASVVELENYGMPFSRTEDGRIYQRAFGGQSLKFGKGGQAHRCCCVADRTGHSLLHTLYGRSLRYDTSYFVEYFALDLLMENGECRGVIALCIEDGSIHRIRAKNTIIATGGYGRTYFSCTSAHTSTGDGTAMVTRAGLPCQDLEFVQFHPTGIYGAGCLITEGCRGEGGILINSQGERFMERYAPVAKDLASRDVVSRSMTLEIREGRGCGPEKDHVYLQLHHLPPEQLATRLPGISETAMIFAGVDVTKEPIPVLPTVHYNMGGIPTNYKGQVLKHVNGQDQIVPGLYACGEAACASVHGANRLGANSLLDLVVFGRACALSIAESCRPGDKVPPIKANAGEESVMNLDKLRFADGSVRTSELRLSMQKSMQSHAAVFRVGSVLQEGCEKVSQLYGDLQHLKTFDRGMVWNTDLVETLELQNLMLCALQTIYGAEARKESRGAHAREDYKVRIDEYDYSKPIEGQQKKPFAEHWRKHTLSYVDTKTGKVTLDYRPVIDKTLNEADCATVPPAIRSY
T1 sequence (P21913 31-282): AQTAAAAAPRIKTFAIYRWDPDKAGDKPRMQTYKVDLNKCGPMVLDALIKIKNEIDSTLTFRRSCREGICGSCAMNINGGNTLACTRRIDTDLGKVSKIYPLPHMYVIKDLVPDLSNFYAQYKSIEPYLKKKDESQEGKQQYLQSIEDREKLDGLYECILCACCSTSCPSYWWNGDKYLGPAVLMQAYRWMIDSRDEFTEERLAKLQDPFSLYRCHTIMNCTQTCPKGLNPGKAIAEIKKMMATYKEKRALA
T1 sequence (Q641Z9 1-169): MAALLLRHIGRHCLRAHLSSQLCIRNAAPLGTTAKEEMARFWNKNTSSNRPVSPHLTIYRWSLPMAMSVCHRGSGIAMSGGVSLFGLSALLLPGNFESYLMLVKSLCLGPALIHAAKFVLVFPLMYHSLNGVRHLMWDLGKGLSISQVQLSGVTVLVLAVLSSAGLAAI
T1 sequence (Q6PCT8 57-159): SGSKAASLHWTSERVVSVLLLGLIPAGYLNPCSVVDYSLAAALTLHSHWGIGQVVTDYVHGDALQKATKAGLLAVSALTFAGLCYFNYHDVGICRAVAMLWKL

[15] = test system: Caenorhabditis elegans strain PE255; assay: In vivo C. elegans ATP status assay; details: Caenorhabditis elegans, read-out: LEC LUM: lowest effect concentration for luminescence, a measure of nematode ATP content
HepG2 cells [16] = assay: cells; details: Homo sapiens
[17] = test system: Nrf2/ARE (ARE-bla HepG2 cells); assay: ARE β-lactamase reporter gene assay; format: cell-based, human; details: Homo sapiens, HepG2, 16 h, read-out: ARE (HepG2) EC50

Question: With C=C(C)[C@H]1Cc2c(ccc3c2O[C@@H]2COc4cc(OC)c(OC)cc4[C@@H]2C3=O)O1 [Rotenone, reference compound] as the compound, how does the IC50 (rat primary hepatocytes [1]; 1 h, read-out: Rat hepatocytes IC50 (MMP)) read?
Answer: Its IC50 is 0.36 µM.

Question: And the IC50 (rat primary hepatocytes [1]; read-out: MMP assays IC50 (µM) Rat Hepatocytes)?
Answer: The IC50 was 0.2 ± 0.3 µM.

Question: What about the EC50 (HepG2 cells [2]) of the same compound?
Answer: Its EC50 is 4040 nM.

Question: What about the Parkin recruitment [3] of the same compound?
Answer: The Parkin recruitment was “Inactive”.

Question: And the “Parkin translocation into mitochondria (in words)” value ([3]; 3 h)?
Answer: Its value is “did not induce Parkin translocation”.

Question: And the “Complex V % inhibition (activity call)” value [4]?
Answer: Its value is “Inactive”.

Question: What about the “MMP assays efficacy (%) Rat Hepatocytes” value (rat primary hepatocytes [5]) of the same compound?
Answer: The value was -86+39%.

Question: What about the “Rat hepatocytes (efficacy) (MMP)” value (rat primary hepatocytes [5]) of the same compound?
Answer: The value was 0.36±0.22 ( −85.9±10.7 ) %.

Question: And the “MMP assays efficacy (%) qHTS-HepG2” value (HepG2 cells [6])?
Answer: The value was -104±7%.

Question: And the IC50 (HepG2 cells [6]; read-out: MMP assays IC50 (µM), qHTS-HepG2)?
Answer: The IC50 was 17.4 ± 1.94 µM.

Question: And the “inhibitory effect at (concentration) on larval growth in the C. elegans assay” value [7]?
Answer: The value was 0.05 µM.

Question: What about the “inhibitory effect on Complex I at (concentration)” value [8] of the same compound?
Answer: Its value is 0.032 µM.

Question: What about the “Complex I % inhibition” value ([8]; at 0.032μM) of the same compound?
Answer: The value was 37.5±3.32 at 0.032μM %.

Question: What about the “larval growth effect at 0.5μM” value ([9]; 0.5 µM) of the same compound?
Answer: Its value is “severe larval growth arrest”.

Question: And the minimal effective concentration ([9]; Caenorhabditis elegans, read-out: LEC EXT: lowest effect concentration for extinction, a measure of nematode size)?
Answer: The minimal effective concentration was 0.05 µM.

Question: And the “Complex IV % inhibition (activity call)” value [10]?
Answer: The value was “Inactive”.

Question: What about the “Complex III % inhibition (activity call)” value [11] of the same compound?
Answer: Its value is “Inactive”.

Question: And the IC50 (HepG2 cells [12]; read-out: ATP (HepG2, galactose) IC50)?
Answer: The IC50 was 1630 nM.

Question: What about the IC50 (HepG2 cells [12]; read-out: ATP (HepG2, glucose) IC50) of the same compound?
Answer: Its IC50 is 1050 nM.

Question: And the “Potential Mechanism” value [13]?
Answer: Its value is “Inhibitor (at complex I)”.

Question: And the “effect on mitochondrial respiration (in words)” value [13]?
Answer: Its value is “only inhibited glutamate/malate-driven respiration, but not succinate-driven respiration”.

Question: What about the “I-ADP, % of control (O2 consumption rate)” value ([13]; 0.00128 µM) of the same compound?
Answer: Its value is 91 (44.7) % of control.

Question: And the “I-sub, % of control (O2 consumption rate)” value ([13]; 0.00128 µM)?
Answer: The value was 113 (15.6) % of control.

Question: And the “II-ADP, % of control (O2 consumption rate)” value (shortened to “II-ADP, % of control”) ([13]; 0.00128 µM)?
Answer: The value was 98 (87.5) % of control.

Question: And the “II-sub, % of control (O2 consumption rate)” value (from here on “II-sub, % of control”) ([13]; 0.00128 µM)?
Answer: The value was 94 (25.3) % of control.

Question: And the “I-ADP, % of control (O2 consumption rate)” value ([13]; 0.0064 µM)?
Answer: The value was 81 (40.2) % of control.

Question: What about the “I-sub, % of control (O2 consumption rate)” value ([13]; 0.0064 µM) of the same compound?
Answer: Its value is 114 (15.8) % of control.

Question: And the “II-ADP, % of control” value ([13]; 0.0064 µM)?
Answer: The value was 83 (74.3) % of control.

Question: And the “II-sub, % of control” value ([13]; 0.0064 µM)?
Answer: Its value is 56 (15.2) % of control.

Question: What about the “I-ADP, % of control (O2 consumption rate)” value ([13]; 0.032 µM) of the same compound?
Answer: Its value is 27 (13.1) % of control.

Question: And the “I-sub, % of control (O2 consumption rate)” value ([13]; 0.032 µM)?
Answer: The value was 86 (11.9) % of control.

Question: And the “II-ADP, % of control” value ([13]; 0.032 µM)?
Answer: The value was 97 (86.1) % of control.

Question: What about the “II-sub, % of control” value ([13]; 0.032 µM) of the same compound?
Answer: Its value is 79 (21.4) % of control.

Question: What about the “I-ADP, % of control (O2 consumption rate)” value ([13]; 0.16 µM) of the same compound?
Answer: Its value is 20 (9.9) % of control.

Question: And the “I-sub, % of control (O2 consumption rate)” value ([13]; 0.16 µM)?
Answer: The value was 71 (9.9) % of control.

Question: And the “II-ADP, % of control” value ([13]; 0.16 µM)?
Answer: The value was 107 (95.0) % of control.

Question: What about the “II-sub, % of control” value ([13]; 0.16 µM) of the same compound?
Answer: Its value is 97 (26.3) % of control.

Question: And the “I-ADP, % of control (O2 consumption rate)” value ([13]; 0.8 µM)?
Answer: Its value is 18 (8.9) % of control.

Question: And the “I-sub, % of control (O2 consumption rate)” value ([13]; 0.8 µM)?
Answer: The value was 64 (8.9) % of control.

Question: What about the “II-ADP, % of control” value ([13]; 0.8 µM) of the same compound?
Answer: The value was 99 (88.3) % of control.

Question: What about the “II-sub, % of control” value ([13]; 0.8 µM) of the same compound?
Answer: Its value is 99 (26.9) % of control.

Question: What about the “I-ADP, % of control (O2 consumption rate)” value ([13]; 4 µM) of the same compound?
Answer: Its value is 19 (9.5) % of control.

Question: What about the “I-sub, % of control (O2 consumption rate)” value ([13]; 4 µM) of the same compound?
Answer: Its value is 64 (8.8) % of control.

Question: And the “II-ADP, % of control” value ([13]; 4 µM)?
Answer: The value was 97 (86.3) % of control.

Question: And the “II-sub, % of control” value ([13]; 4 µM)?
Answer: The value was 97 (26.2) % of control.

Question: What about the “I-ADP, % of control (O2 consumption rate)” value ([13]; 20 µM) of the same compound?
Answer: The value was 18 (8.8) % of control.

Question: What about the “I-sub, % of control (O2 consumption rate)” value ([13]; 20 µM) of the same compound?
Answer: The value was 62 (8.6) % of control.

Question: What about the “II-ADP, % of control” value ([13]; 20 µM) of the same compound?
Answer: The value was 95 (84.3) % of control.

Question: What about the “II-sub, % of control” value ([13]; 20 µM) of the same compound?
Answer: The value was 107 (28.9) % of control.

Question: What about the IC50 (hNSC) of the same compound?
Answer: Its IC50 is 23700 nM.

Question: And the “Complex II % inhibition (activity call)” value [14]?
Answer: Its value is “Inactive”.

Question: And the minimal effective concentration [15]?
Answer: Its minimal effective concentration is 0.5 µM.

Question: And the IC50 (HepG2 cells [16]; HepG2, 1 h, read-out: HepG2 IC50 Galactose (MMP))?
Answer: Its IC50 is 31.8 µM.

Question: And the IC50 (HepG2 cells [16]; HepG2, 1 h, read-out: HepG2 IC50 Glucose (MMP))?
Answer: Its IC50 is 44.7 µM.

Question: What about the IC50 (HepG2 cells [16]; HepG2, read-out: MMP assays IC50 (µM) HepG2) of the same compound?
Answer: Its IC50 is 0.0123 µM.

Question: And the Emax (HepG2 cells [16]; HepG2, read-out: MMP assays efficacy (%) HepG2)?
Answer: Its Emax is 95%.

Question: What about the EC50 [17] of the same compound?
Answer: Its EC50 is 50 ± 20 nM.
